The numbers were not newly measured in patent publication US20240041944A1, “OPTIMIZED INDIVIDUALIZED PREBIOTIC COMPOSITIONS” (ISOThrive LLC, priority 2016, published 2024), which cites them from elsewhere.

“Also recorded” adds a separate entry of the source. Ends that are not written are not given here.

One data set relates to Salmonella spp. The note with it: co-administered with EDTA.
The subject of another data set is head/neck tumors. Conditions: head and neck, mice.
Data set [1] deals with Bacillus, Clostridium, Staphylococcus, Streptococcus, and Listeria spp.
The conditions of data set [2]: can be autoclaved at 115° C.
The subject of another data set is Caenorhabditis elegans. The note with it: incubation with rifamycin.

“Nisin: lantibiotic bacteriocin produced by Lactococcus lactis, 34-residue peptide (SEQ ID NO:2) (ITSISLCTPGCKTGALMGCNMKTATCNCSIHVSK; cysteine pairing not given here; also: lanthionine modifications; listed as Lactococcus lactis)”: the “activity against gram negative organisms” value in the data set with Salmonella spp. was “effective”. In addition, in the data set with head/neck tumors, the “effect on tumorigenesis / tumors” value is recorded as “reduce tumorigenesis”. Further, the “Cancer Cell Type affected” value in the data set with cancer cell lines is on record as “MCF7 (breast cancer),; also recorded: HepG2 (liver cancer)”. Moreover, the antimicrobial activity entry in data set [1] is on record as “active”. Besides, the thermal stability result in data set [2] is given as “thermally stable”. On to Bovicin HC5, for which the “Cancer Cell Type affected” value in the data set with cancer cell lines is recorded as “MCF7 (breast cancer),; also recorded: HepG2 (liver cancer)”. For the molecule `CO[C@H]1/C=C/O[C@@]2(C)Oc3c(C)c(O)c4c(O)c(cc(O)c4c3C2=O)NC(=O)/C(C)=C\C=C\[C@H](C)[C@H](O)[C@@H](C)[C@@H](O)[C@@H](C)[C@H](OC(C)=O)[C@@H]1C` [rifamycin], the increase of lifespan entry in the data set with Caenorhabditis elegans is “up to 60%”. Moreover, the cytotoxicity entry in the data set with ascites tumors was “cytotoxic”.

B1: Colicin E3: class III bacteriocin produced by E. coli (protein, UniProt P00646 1-551, looked up)
Colicin E3: MSGGDGRGHNTGAHSTSGNINGGPTGLGVGGGASDGSGWSSENNPWGGGSGSGIHWGGGSGHGNGGGNGNSGGGSGTGGNLSAVAAPVAFGFPALSTPGAGGLAVSISAGALSAAIADIMAALKGPFKFGLWGVALYGVLPSQIAKDDPNMMSKIVTSLPADDITESPVSSLPLDKATVNVNVRVVDDVKDERQNISVVSGVPMSVPVVDAKPTERPGVFTASIPGAPVLNISVNNSTPAVQTLSPGVTNNTDKDVRPAGFTQGGNTRDAVIRFPKDSGHNAVYVSVSDVLSPDQVKQRQDEENRRQQEWDATHPVEAAERNYERARAELNQANEDVARNQERQAKAVQVYNSRKSELDAANKTLADAIAEIKQFNRFAHDPMAGGHRMWQMAGLKAQRAQTDVNNKQAAFDAAAKEKSDADAALSSAMESRKKKEDKKRSAENNLNDEKNKPRKGFKDYGHDYHPAPKTENIKGLGDLKPGIPKTPKQNGGGKRKRWTGDKGRKIYEWDSQHGELEGYRASDGQHLGSFDPKTGNQLKGPDPKRNIKKYL
Take B1: the “Cancer Cell Type affected” value in the data set with cancer cell lines was “P388 (lymphoma) and HeLa”.

B2: Colicin E1: class III bacteriocin produced by E. coli (protein, UniProt P02978 1-522, looked up)
Colicin-E1: METAVAYYKDGVPYDDKGQVIITLLNGTPDGSGSGGGGGKGGSKSESSAAIHATAKWSTAQLKKTQAEQAARAKAAAEAQAKAKANRDALTQRLKDIVNEALRHNASRTPSATELAHANNAAMQAEDERLRLAKAEEKARKEAEAAEKAFQEAEQRRKEIEREKAETERQLKLAEAEEKRLAALSEEAKAVEIAQKKLSAAQSEVVKMDGEIKTLNSRLSSSIHARDAEMKTLAGKRNELAQASAKYKELDELVKKLSPRANDPLQNRPFFEATRRRVGAGKIREEKQKQVTASETRINRINADITQIQKAISQVSNNRNAGIARVHEAEENLKKAQNNLLNSQIKDAVDATVSFYQTLTEKYGEKYSKMAQELADKSKGKKIGNVNEALAAFEKYKDVLNKKFSKADRDAIFNALASVKYDDWAKHLDQFAKYLKITGHVSFGYDVVSDILKIKDTGDWKPLFLTLEKKAADAGVSYVVALLFSLLAGTTLGIWGIAIVTGILCSYIDKNKLNTINEVLGI
Take B2: the “Cancer Cell Type affected” value in the data set with cancer cell lines is “MCF7 (breast cancer),; also recorded: HS913T (fibrosarcoma)”.

B3: Pyocin S2: class III bacteriocin produced by P. aeruginosa 42A (protein, UniProt Q06584 2-689, looked up)
Pyocin-S2: AVNDYEPGSMVITHVQGGGRDIIQYIPARSSYGTPPFVPPGPSPYVGTGMQEYRKLRSTLDKSHSELKKNLKNETLKEVDELKSEAGLPGKAVSANDIRDEKSIVDALMDAKAKSLKAIEDRPANLYTASDFPQKSESMYQSQLLASRKFYGEFLDRHMSELAKAYSADIYKAQIAILKQTSQELENKARSLEAEAQRAAAEVEADYKARKANVEKKVQSELDQAGNALPQLTNPTPEQWLERATQLVTQAIANKKKLQTANNALIAKAPNALEKQKATYNADLLVDEIASLQARLDKLNAETARRKEIARQAAIRAANTYAMPANGSVVATAAGRGLIQVAQGAASLAQAISDAIAVLGRVLASAPSVMAVGFASLTYSSRTAEQWQDQTPDSVRYALGMDAAKLGLPPSVNLNAVAKASGTVDLPMRLTNEARGNTTTLSVVSTDGVSVPKAVPVRMAAYNATTGLYEVTVPSTTAEAPPLILTWTPASPPGNQNPSSTTPVVPKPVPVYEGATLTPVKATPETYPGVITLPEDLIIGFPADSGIKPIYVMFRDPRDVPGAATGKGQPVSGNWLGAASQGEGAPIPSQIADKLRGKTFKNWRDFREQFWIAVANDPELSKQFNPGSLAVMRDGGAPYVRESEQAGGRIKIEIHHKVRIADGGGVYNMGNLVAVTPKRHIEIHKGGK
On to B3, for which, in the data set with cancer cell lines, the “Cancer Cell Type affected” value is “HepG2 (liver cancer) and Im9”.

B4: Microcin E492: class IIa bacteriocin produced by K. pneumoniae (protein, UniProt Q9Z4N4 16-99, looked up)
Microcin E492: GETDPNTQLLNDLGNNMAWGAALGAPGGLGSAALGAAGGALQTVGQGLIDHGPVNVPIPVLIGPSWNGSGSGYNSATSSSGSGS
Turning to B4, in the data set with cancer cell lines, the “Cancer Cell Type affected” value is “HeLa (cervical cancer),; also recorded: Jurkat (leukemia); also recorded: RJ2.25”.
